Settings: Canine plasma +1% Tocophersolan, 37° C.
Description: Samples were protected from light under constant agitation using a vortex mixer. The stability of the API under these conditions was assessed at timed intervals (T=0, 2, 4, 21, 24 hours and 2 and 3 days).

Cc1cc2c(s1)Nc1ccccc1N=C2N1CCN(C)CC1.O.O=C(O)c1cc2ccccc2c(Cc2c(O)c(C(=O)O)cc3ccccc23)c1O [olanzapine pamoate monohydrate]
Concentration (saturated solubility): 817.47 µg/mL
